In US4882348A, “2-(aminoalkylthio)imidazoles as dopamine-β-hydroxylase inhibitors” (SmithKline Beckman Corporation, priority 1987, dated 1989):

Tests used:
[1] = system: Spontaneously hypertensive rats; assay: mean arterial blood pressure in spontaneously hypertensive rats; type: in vivo; details: 50 mg/kg intraperitoneally
Protocol: Spontaneously hypertensive rats were treated with 2-(2-aminoethylthio) 1-(3,5 difluorobenzyl)imidazole at a dose of 50 mg/kg intraperitoneally, and mean arterial blood pressure was monitored for four hours using an indwelling cannula in the femoral artery. […] The maximal blood pressure reduction was approximately 10 mmHg.

DBH = molecular target: T1, DBH (Bos taurus, UniProt P15101); assay: in vitro DBH inhibition, conversion of tyramine to octopamine; type: biochemical; details: octopamine assayed as p-hydroxybenzaldehyde after sodium periodate oxidation, absorbance at 330 nm; read-out: IC50 (molar concentration of compound at which DBH activity was halved)
T1 sequence (P15101 1-610): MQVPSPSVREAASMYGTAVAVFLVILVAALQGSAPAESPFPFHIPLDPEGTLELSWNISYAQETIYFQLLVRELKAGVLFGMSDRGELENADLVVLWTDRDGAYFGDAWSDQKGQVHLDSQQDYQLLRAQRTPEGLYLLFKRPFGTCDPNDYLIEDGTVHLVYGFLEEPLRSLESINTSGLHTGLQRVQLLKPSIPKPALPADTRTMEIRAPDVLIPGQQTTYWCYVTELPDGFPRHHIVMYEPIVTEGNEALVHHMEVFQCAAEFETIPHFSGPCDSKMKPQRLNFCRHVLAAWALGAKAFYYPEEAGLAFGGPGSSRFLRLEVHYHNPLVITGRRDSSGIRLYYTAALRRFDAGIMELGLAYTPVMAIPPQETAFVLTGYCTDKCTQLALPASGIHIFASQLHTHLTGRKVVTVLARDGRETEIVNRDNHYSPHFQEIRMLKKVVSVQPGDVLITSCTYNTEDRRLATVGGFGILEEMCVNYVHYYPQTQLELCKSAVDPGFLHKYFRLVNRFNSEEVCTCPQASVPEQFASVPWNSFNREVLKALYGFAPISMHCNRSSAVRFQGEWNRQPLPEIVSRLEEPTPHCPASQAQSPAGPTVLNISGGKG
Protocol: Listed in Table I are Formula (I) compounds that were tested for in vitro DBH inhibition by a standard procedure for assaying conversion of tyramine to octopamine in the presence of DBH. J. J. Pisano, et al., Biochim. Biophys. 43, 566-568 (1960). Octopamine was assayed following sodium periodate oxidation to p-hydroxybenzaldehyde by measuring spectrophotometric absorbance at 330 nm. Inhibition is given in molar concentration of compound at which DBH activity was halved (IC50).

Cl.Cl.NCCSc1nccn1Cc1cc(F)cc(F)c1 [2-(2-Aminoethylthio)-1-(3,5-difluorobenzyl)imidazole Dihydrochloride]
maximal blood pressure reduction ([1]; mean arterial blood pressure, femoral artery cannula): approximately 10 mmHg | blood pressure reduction compared to vehicle treated controls ([1]; monitored for four hours): significant blood pressure reductions | time of lowest blood pressures after administration ([1]; monitored for four hours): 3 to 4 h | time to significant blood pressure reductions ([1]; vs vehicle treated controls): ≤ 30 min | IC50 (DBH): 1800 µM
